The conditions of this data set: fresh human skin with dermis, control/VAP gel and RAMEB/VAP gel, contact time 24 hours.

Procedure: The study is carried out using the Franz cells characterized above.
After a contact time of 24 hours, the excess gel on the surface of the skin is washed off with the aid of cotton buds.
The cotton buds together with the upper part of the cell are immersed in 10 ml of isopropanol and ultrasonicated for 15 minutes and then stirred for 2 hours.
The solutions are diluted to 1/10 and filtered on a 0.2 μm filter before assaying.
The stratum corneum is collected by 7 successive strippings (pressure 300 g/cm^2, duration 12 s). The VAP is extracted by solubilization in 2 ml of methanol overnight at 4° C., followed by stirring for 2 hours and finally filtration on a 0.2 μm filter before assaying.
With the stratum corneum removed, the epidermis is separated from the dermis with the aid of a scalpel.
The VAP is extracted from the epidermis by solubilization of the latter in 1 ml of methanol overnight at 4° C., followed by stirring for 2 hours and finally filtration on a 0.2 μm filter before assaying.
The VAP assays are performed by HPLC.

Turning to `CCC(=O)OC/C=C(C)/C=C/C=C(C)/C=C/C1=C(C)CCCC1(C)C` [VAP, vitamin A propionate], the “VAP detected in the reception liquid” value was “No trace”.

Values taken from patent US20050085444A1, “Cosmetic or dermatological use of vitamin a or the esters thereof in combination with a partly methylated beta-cyclodextrin” (priority 2002, published 2005).
